In test [1] the target is T1, PTK2 (Homo sapiens, UniProt Q05397).
T1 construct: purchased Invitrogen PV3832
As to the kind of experiment: PTK2 Enzyme Test (DELFIA assay, poly-Glu-Tyr substrate). Type of test: biochemical. The note with it: active PTK2 enzyme, 50 μM ATP in ATP Mix, 1 h pre-incubation. As for the experimental part:
This test uses active PTK2 enzyme (Invitrogen Code PV3832) and poly-Glu-Tyr (4:1, Sigma P-0275) as the kinase substrate. The kinase activity is detected by means of the phosphorylation of the substrate in a DELFIA™ assay. The phosphorylated substrate is detected with the Europium-labelled phosphotyrosine antibody PY20 (Perkin Elmer, No.: AD0038).
In order to determine concentration-activity curves with PTK2-inhibitors the compounds are serially diluted in 10% DMSO/H2O and 10 μL of each dilution are dispensed per well in a 96-well microtitre plate (clear U-shaped base plate, Greiner No. 650101) (the inhibitors are tested in duplicates) and mixed with 10 μL/well of PTK2 kinase (0.01 μg/well). PTK2 kinase is diluted accordingly beforehand with kinase dilution buffer (20 mM TRIS/HCl pH 7.5, 0.1 mM EDTA, 0.1 mM EGTA, 0.286 mM sodium orthovanadate, 10% glycerol with the addition of freshly prepared BSA (fraction V 1 mg/mL) and DTT (1 mM)). The test compound and the PTK2 kinase are pre-incubated for 1 h at RT and shaken at 500 rpm. Then 20 μL ATP Mix (30 mM TRIS/HCl pH 7.5, 0.02% Brij, 0.2 mM sodium orthovanadate, 10 mM magnesium acetate, 0.1 mM EGTA, 1× Phosphatase Inhibitor Cocktail 1 (Sigma, No.: P2850), 50 μM ATP (Sigma, No.: A3377; 15 mM stock solution)) are added. The reaction is started by the addition of 10 μL/well of poly (Glu,Tyr) substrate (25 μg/well poly (Glu,Tyr), 0.05 μg/well biotinylated poly (Glu,Tyr) dissolved in 250 mM TRIS/HCl pH 7.5, 9 mM DTT)—the final concentration of DMSO is 2%. After 1 h kinase reaction (the plates are shaken at 500 rpm), the reaction is stopped by the addition of 12 μL/well of 100 mM EDTA, pH 8. And shaken for a further 5 min at RT (500 U/min).
55 μL of the reaction mixture are transferred into a streptavidin plate (Strepta Well High Bind (transparent, 96-well) made by Roche, No.: 11989685001) and incubated for 1 h at RT (shaking at 500 rpm). Then the microtitre plate is washed three times with 200 μL/well D-PBS (Invitrogen, No.:14190). 100 μL of 1:2000 diluted DELFIA Eu-N1 Anti-Phosphotyrosine PY20 antibody (Perkin Elmer, No.: AD0038, 1:2000 diluted in DELFIA test buffer (Perkin Elmer, No.: 1244-111)) is then added and it is incubated for 1 h at RT (shaking at 500 rpm). Then the plate is washed three times with 200 μL/well DELFIA washing buffer (Perkin Elmer, No.: 1244-114), 200 μL/well strengthening solution (Perkin Elmer, No.: 1244-105) is added and the whole is incubated for 10 min at RT (shaking at 300 rpm).
The time-delayed europium fluorescence is then measured in a microtitre plate reader (Victor, Perkin Elmer). The positive control consists of wells that contain solvent (2% DMSO in test buffer) and display uninhibited kinase activity. Wells that contain test buffer instead of enzyme act as a control for the background kinase activity.
The IC50 values are determined from concentration-activity analyses by iterative calculation using a sigmoidal curve analysis algorithm (FIFTY, based on GraphPAD Prism Version 3.03) with a variable Hill coefficient.

Test [2] has as its target T2, PTK2-phosphorylation at tyrosine 397 (pY397) (Homo sapiens, UniProt Q05397).
T2 construct: endogenous in cells; host or cells: PC-3 (ATCC CRL-1435)
Put plainly: Phospho-PTK2 (pY397) Assay in PC-3 cells. Format: cell-based. The note with it: PC-3 prostate carcinoma cells, 2 h incubation; read-out: PC3pPTK2 Y397 EC50. How it is done:
This cellular test is used to determine the influence of PTK2-inhibitors on the state of the PTK2-phosphorylation at tyrosine 397 (pY397).
PC-3 cells (prostate carcinoma, ATCC CRL-1435) are grown in cell culture flasks (175 cm^2) with F12 Kaighn's Medium (Gibco, No.: 21127) with the addition of 10% foetal calf serum (Invitrogen, No.: 16000-044). The cultures are incubated in the incubator at 37° C. and 5% CO2 and run twice a week.
For the test, 2×10^4 cells pro well/[…] are plated out in 96-well microtitre plates (Costar, No.: 3598) and incubated overnight in the incubator at 37° C. and 5% CO2. The test compounds (10 μL from serial dilution) are added the next day. The concentration of the test compounds usually covers a range of 50 μM and 0.8 nM. The test compounds (stock solution: 10 mM in 100% DMSO) are diluted in medium/medium 10% DMSO such that the final concentration is 1% DMSO. The cells are then incubated in the incubator at 37° C. and 5% CO2 for 2 h. Then the culture supernatant is removed and the cells are fixed with 150 μL 4% formaldehyde in D-PBS for 20 min at RT. The cell lawn is washed five times with 200 μL 0.1% Triton X-100 in D-PBS for 5 min in each case and then incubated for 90 min with blocking buffer (5% skimmed milk powder (Maresi Fixmilch) in TBST (25 mM Tris/HCl, pH 8.0, 150 mM NaCl, 0.05% Tween 20). The blocking buffer is replaced by 50 μL of the first antibody anti-phospho PTK2 [pY397] rabbit monoclonal (Invitrogen/Biosource, No.: 44-625G), which is diluted 1:200 in blocking buffer. For control purposes, alternatively a PTK2 [total] antibody (clone 4.47 mouse monoclonal, Upstate, No.: 05-537), diluted 1:400 in blocking buffer is used. This incubation is carried out at 4° C. overnight. Then the cell lawn is washed five times with 100 μL of 0.1% Tween in D-PBS for 5 min in each case and 50 μL/well of second antibody are added. In order to detect bound phospho-PTK2 [pY397] antibody a goat-anti-rabbit antibody is used which is coupled with horseradish peroxidase (Dako, No.: P0448; 1:500 dilution in blocking buffer). In order to detect bound PTK2 [total]-antibodies a rabbit-anti-mouse antibody is used, which is also coupled with horseradish peroxidase (Dako, No.: PO161; 1:1000 dilution in blocking buffer). This incubation is carried out for 1 h at RT with gentle shaking. The cell lawn is then again washed five times with 100 μL of 0.1% Tween in D-PBS for 5 min in each case. […] The EC50 values are determined from concentration-activity analyses by iterative calculation with the aid of a sigmoidal curve analysis algorithm (FIFTY, based on GraphPAD Prism Version 3.03) with a variable Hill coefficient.

T1 sequence (Q05397 whole entry): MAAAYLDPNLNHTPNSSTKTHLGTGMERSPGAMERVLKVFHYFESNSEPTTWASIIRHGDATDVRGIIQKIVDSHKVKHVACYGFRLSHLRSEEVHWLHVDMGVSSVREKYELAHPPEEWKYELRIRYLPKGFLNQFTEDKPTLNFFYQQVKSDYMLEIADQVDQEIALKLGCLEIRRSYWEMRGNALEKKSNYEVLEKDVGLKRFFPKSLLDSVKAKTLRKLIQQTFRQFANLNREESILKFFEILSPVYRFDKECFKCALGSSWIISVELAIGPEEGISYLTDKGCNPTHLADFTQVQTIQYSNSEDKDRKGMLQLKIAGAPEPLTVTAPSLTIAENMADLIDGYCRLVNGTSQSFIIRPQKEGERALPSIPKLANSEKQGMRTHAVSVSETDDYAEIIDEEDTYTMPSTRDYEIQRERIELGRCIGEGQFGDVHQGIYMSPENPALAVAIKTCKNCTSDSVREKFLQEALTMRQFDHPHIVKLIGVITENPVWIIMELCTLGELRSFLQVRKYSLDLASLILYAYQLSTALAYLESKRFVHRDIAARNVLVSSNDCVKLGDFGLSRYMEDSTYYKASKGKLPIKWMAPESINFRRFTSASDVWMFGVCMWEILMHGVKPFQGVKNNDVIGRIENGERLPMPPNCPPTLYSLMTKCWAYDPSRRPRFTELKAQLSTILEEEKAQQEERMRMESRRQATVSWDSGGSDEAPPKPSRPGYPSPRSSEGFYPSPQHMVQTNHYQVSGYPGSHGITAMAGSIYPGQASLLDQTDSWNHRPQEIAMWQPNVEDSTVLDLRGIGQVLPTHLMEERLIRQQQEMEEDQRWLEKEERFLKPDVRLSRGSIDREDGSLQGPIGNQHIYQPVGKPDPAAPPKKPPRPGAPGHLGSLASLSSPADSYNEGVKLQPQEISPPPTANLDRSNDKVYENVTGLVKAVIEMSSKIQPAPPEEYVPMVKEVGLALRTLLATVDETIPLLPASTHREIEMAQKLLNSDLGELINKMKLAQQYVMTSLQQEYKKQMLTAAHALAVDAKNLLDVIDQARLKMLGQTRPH
T2 sequence (Q05397 whole entry): as above

`CCN1CCC(NC(=O)c2cc(OC)c(Nc3ncc(C(F)(F)F)c(NCc4ccc(C)cc4N(C)S(C)(=O)=O)n3)cc2F)CC1` [Example 1]: the half-maximal inhibitory concentration (IC50) in test [1] came out at 2 nM. In addition, the EC50 in test [2] was 0.05 nM. In test [1], `COc1cc(CN(C)C)ccc1Nc1ncc(C(F)(F)F)c(NCc2ccc(C)cc2N(C)S(C)(=O)=O)n1` [Example 3] gave a concentration for half-maximal inhibition (IC50) of 1 nM. Besides, in test [2], the EC50 stood at 0.11 nM.

The molecule `COc1cc(C(=O)NCCN(C)C)ccc1Nc1ncc(C(F)(F)F)c(NCc2ccc(C)cc2N(C)S(C)(=O)=O)n1` [Example 4] yielded an IC50 in test [1] of 1 nM. The concentration giving a half-maximal response (EC50) in test [2] stood at 0.11 nM. With `COc1cc(CN(C)C)ccc1Nc1ncc(C(F)(F)F)c(NCc2ccc(F)cc2N(C)S(C)(=O)=O)n1` [Example 5], 0.86 nM corresponded to half-maximal inhibition in test [1] (IC50). In addition, the half-maximal effective concentration (EC50) in test [2] was determined as 0.12 nM. On the same counts, the results for `COc1cc(C(=O)NC[C@@H](C)N2CCCC2)ccc1Nc1ncc(C(F)(F)F)c(NCc2ccc(C)cc2N(C)S(C)(=O)=O)n1` [Example 6] are 3 nM and 0.13 nM. `COc1cc(C(=O)NC2CCCN(C)C2)ccc1Nc1ncc(C(F)(F)F)c(NCc2ccc(C)cc2N(C)S(C)(=O)=O)n1` (stereo not drawn) [Example 7] displayed an IC50 in test [1] of 3 nM. Besides, the EC50 in test [2] was found to be 0.14 nM.

On to `CCN1CCC(NC(=O)c2ccc(Nc3ncc(C(F)(F)F)c(NCc4ccc(C)cc4N(C)S(C)(=O)=O)n3)c(OC)c2)CC1` [Example 8], for which, in test [1], the half-inhibitory concentration (IC50) was 2 nM. For the same molecule, the EC50 in test [2] came out at 0.14 nM.

Molecule `COc1cc(C(=O)NC2CCN(C(C)=O)CC2)ccc1Nc1ncc(C(F)(F)F)c(NCc2ccc(C)cc2N(C)S(C)(=O)=O)n1` [Example 9] showed a 50% inhibitory concentration (IC50) in test [1] of 6 nM. Besides, the concentration giving a half-maximal response (EC50) in test [2] was determined as 0.14 nM. Take `COc1cc(C(=O)N[C@@H]2CCCN(C(C)C)C2)ccc1Nc1ncc(C(F)(F)F)c(NCc2ccc(C)cc2N(C)S(C)(=O)=O)n1` [Example 10]: in test [1], inhibition was half-maximal at 2 nM (IC50). Also, the 50% effective concentration (EC50) in test [2] was 0.14 nM.

Turning to `COc1cc(C(=O)NC2CC(C)(C)N(C)C(C)(C)C2)ccc1Nc1ncc(C(F)(F)F)c(NCc2ccc(C)cc2N(C)S(C)(=O)=O)n1` [Example 11], the IC50 in test [1] was 4 nM. Also, in test [2], the 50% effective concentration (EC50) is 0.16 nM. In test [1], `CCN(CC)CCNC(=O)c1ccc(Nc2ncc(C(F)(F)F)c(NCc3ccc(C)cc3N(C)S(C)(=O)=O)n2)c(OC)c1` [Example 12] came in with an IC50 of 2 nM. In addition, the EC50 in test [2] came to 0.16 nM. Molecule `COc1cc(C(=O)NCCn2ccnc2)ccc1Nc1ncc(C(F)(F)F)c(NCc2ccc(C)cc2N(C)S(C)(=O)=O)n1` [Example 13] displayed an IC50 in test [1] of 2 nM. The EC50 in test [2] was found to be 0.16 nM. Turning to `COCCNC(=O)c1ccc(Nc2ncc(C(F)(F)F)c(NCc3ccc(C)cc3N(C)S(C)(=O)=O)n2)c(OC)c1` [Example 14], half-maximal inhibition in test [1] (IC50) required 4 nM. The EC50 in test [2] is 0.17 nM. The molecule `COc1cc(C(=O)NC2CCN(C(C)C)CC2)ccc1Nc1ncc(C(F)(F)F)c(NCc2ccc(C)cc2N(C)S(C)(=O)=O)n1` [Example 15] registered a 50% inhibitory concentration (IC50) in test [1] of 3 nM. Besides, the 50% effective concentration (EC50) in test [2] was 0.18 nM. In the case of `COc1cc(C(=O)NC2CCN(C3CCCCC3)CC2)ccc1Nc1ncc(C(F)(F)F)c(NCc2ccc(C)cc2N(C)S(C)(=O)=O)n1` [Example 16], the midpoint of inhibition in test [1], the IC50, lay at 4 nM. The EC50 in test [2] was 0.19 nM. The like results for `CCN1CCC[C@@H](NC(=O)c2ccc(Nc3ncc(C(F)(F)F)c(NCc4ccc(C)cc4N(C)S(C)(=O)=O)n3)c(OC)c2)C1` [Example 17] were, in that order, 2 nM and 0.19 nM. `COc1cc(C(=O)NC2CCN(CC(F)F)CC2)ccc1Nc1ncc(C(F)(F)F)c(NCc2ccc(C)cc2N(C)S(C)(=O)=O)n1` [Example 18] had a concentration for half-maximal inhibition (IC50) in test [1] of 3 nM. In test [2], the 50% effective concentration (EC50) was determined as 0.2 nM. In test [1], `COc1cc(C(=O)N[C@@H]2CCN(C)C[C@H]2F)c(F)cc1Nc1ncc(C(F)(F)F)c(NCc2ccc(C)cc2N(C)S(C)(=O)=O)n1` [Example 19] displayed an IC50 of 3 nM. Also, in test [2], the EC50 worked out at 0.2 nM. The like results for `COc1cc(C(=O)NCCN2CCCCC2)ccc1Nc1ncc(C(F)(F)F)c(NCc2ccc(C)cc2N(C)S(C)(=O)=O)n1` [Example 20] were, in that order, 2 nM and 0.22 nM. Regarding `CCOCCNC(=O)c1ccc(Nc2ncc(C(F)(F)F)c(NCc3ccc(C)cc3N(C)S(C)(=O)=O)n2)c(OC)c1` [Example 21], in test [1], it took 5 nM to reach half-maximal inhibition (IC50). The EC50 in test [2] worked out at 0.22 nM.

Take `COc1cc(C(=O)N[C@H]2CCN(C)C[C@H]2F)c(F)cc1Nc1ncc(C(F)(F)F)c(NCc2ccc(C)cc2N(C)S(C)(=O)=O)n1` [Example 22]: in test [1], the IC50 was determined as 3 nM. For the same molecule, the EC50 in test [2] turned out to be 0.22 nM. `CNC(=O)c1cc(OC)c(Nc2ncc(C(F)(F)F)c(NCc3ccc(OC)cc3N(C)S(C)(=O)=O)n2)cc1F` [Example 127] displayed a concentration for half-maximal inhibition (IC50) in test [1] of 4 nM.

For the molecule `COc1ccc(CNc2nc(Nc3cc(F)c(C(=O)NC(C)(C)C)cc3OC)ncc2C(F)(F)F)c(N(C)S(C)(=O)=O)c1` [Example 128], in test [1], 22 nM corresponded to half-maximal inhibition (IC50). Against the preceding molecule, the IC50 is about 5.5-fold higher. On the same count and under the same terms, next, `Cc1ccc(CNc2nc(Nc3cc(F)c(N4CCNCC4)cc3F)ncc2C(F)(F)F)c(N(C)S(C)(=O)=O)c1` [Example 129]: 1 nM.

Molecule `CNC(=O)c1ccc(Nc2ncc(C(F)(F)F)c(NCc3ccc(C)cc3N(C)S(C)(=O)=O)n2)c(C)c1` [Example 130] came in with an IC50 in test [1] of 1 nM. As for `COc1cc(C(=O)N[C@@H]2CCN(C)C[C@H]2F)ccc1Nc1ncc(C(F)(F)F)c(NCc2ccc(C)cc2N(C)S(C)(=O)=O)n1` [Example 131], in test [1], the IC50 worked out at 4 nM. Same read-out and setting: the same measure for `CCc1cc(C(=O)NC2CCOCC2)ccc1Nc1ncc(C(F)(F)F)c(NCc2ccc(C)cc2N(C)S(C)(=O)=O)n1` [Example 132]: 4 nM.
